Entries after “also recorded” stand apart in the source; their conditions may differ.
Columns and labels:
Format in all cases: cell-based
[1] = tested on: RIP3^− (necroptosis-deficient) HeLa cells; assay: Cell death in the presence of a pan caspase inhibitor of apoptosis; details: for cell death: no inhibitor, Trabectedin alone or plus AdCMV-NULL
Protocol: In follow-up experiments, RIP3^− (necroptosis-deficient) HeLa cells were subjected to the same treatments as described above.
(§1) In order to understand which of several possible cell death pathways are activated by Trabectedin treatment alone and in combination with IFN gamma (virus expressed or exogenously added), experiments were carried out with these agents, alone or in combination, in the presence of inhibitors of apoptosis and/or necroptosis inhibitors in both HeLa (RIP3^+/necroptosis-competent) cells and HeLa (RIP3^−/necroptosis-deficient) cells.

[2] = tested on: HeLa (RIP3^+/necroptosis-competent) cells; assay: Cell death in the presence of inhibitors of apoptosis and necroptosis; details: for cell death: no inhibitor, Trabectedin 2.5 nM (alone or plus AdCMV-NULL); for cell death in the presence of zVAD: pan caspase inhibitor zVAD 50 μM
Protocol: In order to understand which of several possible cell death pathways are activated by Fluorouracil or ASN-002 treatment alone and in combination, experiments were carried out with these agents in the presence of inhibitors of apoptosis and/or necroptosis in HeLa (RIP3^+/necroptosis-competent) cells.
as §1

[3] = tested on: HeLa-RIP3^− or HeLa-RIP3^+ cells; assay: Dose response for chemotherapeutic agents, cell viability by trypan blue exclusion; details: 48 hour exposure; for EC50: read-out: ED50 at 48 hours (cell death)
Protocol: HeLa-RIP3^− or HeLa-RIP3^+ cells (250,000/well) were seeded in six-well plates in complete DMEM medium, and after 24 hours, cells were treated with multiple doses of Fluorouracil. Cell viability was determined 48 hours post treatment via trypan blue exclusion analysis.
HeLa-RIP3^− or HeLa-RIP3^+ cells (250,000/well) were seeded in six-well plates in complete DMEM medium, and after 24 hours, cells were treated with multiple doses of the Trabectedin, Birinapant, or Cisplatin. Cell viability was determined 48 hours post treatment via trypan blue exclusion analysis.

HeLa (RIP3^−) cells = assay: Induction of cell death by TNF alpha, trypan blue exclusion; details: TNF alpha 50 ng/ml; under any condition; 12-15 hours
HeLa-RIP3^+ cells = assay: Induction of cell death by TNF alpha in the presence of cycloheximide and pan caspase inhibitor zVAD, trypan blue exclusion; details: TNF alpha 50 ng/ml in the presence of cycloheximide (250 ng/ml) plus zVAD (50 μM); relative to untreated cells
Protocol: HeLa-RIP3 cells (250,000/well) were plated in six-well plates 24 hours prior to treatment with TNF alpha and cycloheximide (TCZ treatment). Cells were pre-treated with CHX (250 ng/ml) and the pan caspase inhibitor zVAD (50 μM) one hour before TNF alpha (50 ng/ml) treatment. Cell viability was determined after 12-15 hours by trypan blue exclusion analysis.

HeLa-RIP3^− cells = details: Birinapant 5 μM or 30 μM, 48 hours
Protocol: (§2) HeLa-RIP3^− cells (250,000/well) cells were plated in six-well plates 24 hours prior to infection. ASN-002 infections were performed in serum-free medium at multiplicities of infection (MOI) of 10. Two doses of Fluorouracil were co-administered with viruses, and cell death kinetics was analyzed over the period of 3 days.
as §2, with “chemotherapeutic agents” for “Fluorouracil”

[4] = Fluorouracil 10 μM, Trabectedin 2.5 nM

COc1cc2c(cc1O)CCN[C@]21CS[C@@H]2c3c(OC(C)=O)c(C)c4c(c3[C@H](COC1=O)N1[C@@H]2[C@H]2c3c(cc(C)c(OC)c3O)C[C@@H]([C@@H]1O)N2C)OCO4 [Trabectedin]
cell death [1]: 33%
cell death in the presence of zVAD ([1]; pan caspase inhibitor zVAD): 87%
cell death in the presence of NSA relative to treatment without inhibitor ([2]; NSA): slightly lower
cell death ([2]; Fluorouracil 10 μM): approximately 35%
cell death in the presence of zVAD [2, 4]: about 95%
cell death in the presence of both zVAD and NSA ([2]; zVAD plus NSA, Fluorouracil 10 μM, Trabectedin 2.5 nM): about 60%
EC50 [3]: ~0.01 µM

N.N.[Cl][Pt][Cl] [Cisplatin]
ED50 at 48 hours (cell death) [3]: ~10 µg/mL

TNF alpha
induction of cell death (HeLa (RIP3^−) cells): failed to induce cell death
cell death (HeLa-RIP3^+ cells): about 70%

CC[C@H](NC(=O)[C@H](C)NC)C(=O)N1C[C@@H](O)C[C@H]1Cc1c(-c2[nH]c3cc(F)ccc3c2C[C@@H]2C[C@H](O)CN2C(=O)[C@H](CC)NC(=O)[C@H](C)NC)[nH]c2cc(F)ccc12 [Birinapant]
EC50 [3]: ~30 µM
cell death in combination with control adenovirus (Ad-CMV-NULL) relative to agent alone (HeLa-RIP3^− cells): same level of cell death as Birinapant alone; also recorded: indistinguishable from that induced by Birinapant alone

O=c1[nH]cc(F)c(=O)[nH]1 [Fluorouracil]
cell death in the presence of zVAD relative to treatment without inhibitor [1]: slightly lower
cell death in the presence of Necrosulfonamide (NSA) ([2]; necroptosis inhibitor NSA 1 μM, Fluorouracil 10 μM): 45%
cell death ([2]; Fluorouracil 10 μM): approximately 35%
cell death in the presence of zVAD [2, 4]: about 80%
EC50 [3]: ~50 µM

B1: purified IFN gamma: purified interferon gamma, cytokine (protein, UniProt P01579 24-161, looked up)
Interferon gamma: QDPYVKEAENLKKYFNAGHSDVADNGTLFLGILKNWKEESDRKIMQSQIVSFYFKLFKNFKDDQSIQKSVETIKEDMNVKFFNSNKKKRDDFEKLTNYSVTDLNVQRKAIHELIQVMAELSPAAKTGKRKRSQMLFRG
cell death [1]: ~30%
cell death in the presence of zVAD relative to treatment without inhibitor [1]: marked, though not complete, rescue of cell death
cell death in the presence of zVAD relative to treatment without inhibitor ([1]; listed as IFN gamma): significantly reduced cell death
cell death ([2]; Fluorouracil 10 μM): ~30%

Source: US11273170B2, “Methods of treating cancer” (Ascend Biopharmaceuticals Ltd, priority 2016, dated 2022)
